Test results from patent US9546401B2, “Assays and methods for selecting a treatment regimen for a subject with depression” (The General Hospital Corporation, priority 2011, dated 2017).
Where two headings read alike, the source gives them in different places.

Tested on: MDD patients carrying the indicated biomarkers
Procedure: Folate levels are classified as either low (<=2.5 ng/ml) or normal; and homocysteine levels as either normal or elevated (>=[…]). The presence or absence of at least one […] allele for the MTHFR gene are entered as a dichotomous variable (present or absent). […] Using folate as an example predicator, the presence or absence of a low serum-folate level along with treatment assignment can be entered in a 2×2, factorial ANOVA, using depression improvement scores (baseline minus endpoint HAM-D-17 scores) as the dependant variable. […] Similar analyses (i.e. separate 2×2 ANOVA's) can be performed substituting the presence of low folate levels for the presence of other predictors as described herein. Similarly, the effect of other predictors can be indicated by the interaction term representing the potential modulating influence of those variables.
The efficacy effect is determined by measuring the mean change in the HAMD-17 score and HAMD-28 score by the end of Phase I and Phase II, as compared to the baseline.

[1] = Phase I, BMI < 30 kg/m^2 and SAM/SAH >= median
[2] = Phase I, BMI >= 30 kg/m^2 and HNE-His >= median
[3] = Phase I, BMI*treat (interaction of BMI with the treatment)
[4] = Phase I, MTHFR 677 CC and BMI < 30 kg/m^2
[5] = Phase I, MTHFR 677 CT or TT and BMI >= 30 kg/m^2
[6] = Phase I, MTHFR 677 CT or TT and HNE-His >= median
[7] = Phase I, MTR 2756 AA and BMI < 30 kg/m^2
[8] = Phase I, MTR 2756 AA and HNE-His < median
[9] = Phase I, MTR 2756 AA and MTRR 66 AA
[10] = Phase I, MTR 2756 AA and MTRR 66 AA and SAM/SAH >= median
[11] = Phase I, MTR 2756 AA and SAM/SAH >= median
[12] = Phase I, MTR 2756 AG or GG and BMI >= 30 kg/m^2
[13] = Phase I, MTR 2756 AG or GG and MTRR 66 AG or GG
[14] = Phase I, MTR 2756 AG or GG and MTRR 66 AG or GG and HNE-His >= median
[15] = Phase I, MTRR 66 AA and SAM/SAH >= median
[16] = Phase I, MTRR 66 AG or GG and HNE-His >= median
[17] = Phase I, SAM/SAH < median and HNE-His >= median
[18] = Phase I, SAM/SAH >= median and HNE-His < median
[19] = Phase II, 25 =< BMI < 30 kg/m^2

## CN1c2c(nc(N)[nH]c2=O)NC[C@@H]1CNc1ccc(C(=O)N[C@@H](CCC(=O)O)C(=O)O)cc1 [6(S)-5-MTHF, 6(S)-5-methyltetrahydrofolate]
Phase I, BMI < 30 kg/m^2 and HNE-His < median
  Effect on change in HAMD-28 score: 4.606
[1]
  Effect on change in HAMD-17 score: 4.333
  Effect on change in HAMD-28 score: 4.333
Phase I, BMI >= 30 kg/m^2
  Effect on change in HAMD-17 score: −6.414
  Effect on change in HAMD-28 score: −6.677
[2]
  Effect on change in HAMD-17 score: −6.569
  Effect on change in HAMD-28 score: −6.510
Phase I, BMI >= 30 kg/m^2 and SAM/SAH < median
  Effect on change in HAMD-17 score: −5.611
Phase I, BMI >= 30 kg/m^2 and SAM/SAH < median = 2.71 (plasma)
  Effect on change in HAMD-28 score: −6.306
[3]
  Effect on change in HAMD-17 score: −0.567
  Effect on change in HAMD-28 score: −0.668
[4]
  Effect on change in HAMD-17 score: 4.500
  Effect on change in HAMD-28 score: 2.769
Phase I, MTHFR 677 CC and HNE-His < median
  Effect on change in HAMD-17 score: −1.471
Phase I, MTHFR 677 CC and HNE-His < median = 3.28 (plasma)
  Effect on change in HAMD-28 score: −2.821
[5]
  Effect on change in HAMD-17 score: −8.738
  Effect on change in HAMD-28 score: −9.857
[6]
  Effect on change in HAMD-17 score: −7.143
  Effect on change in HAMD-28 score: −6.929
Phase I, MTR 2756 AA
  Effect on change in HAMD-17 score: −0.621
  Effect on change in HAMD-28 score: 0.409
[7]
  Effect on change in HAMD-17 score: 4.476
  Effect on change in HAMD-28 score: 5.524
[8]
  Effect on change in HAMD-17 score: 0.306
  Effect on change in HAMD-28 score: 0.639
[9]
  Effect on change in HAMD-17 score: 3.125
  Effect on change in HAMD-28 score: 5.000
Phase I, MTR 2756 AA and MTRR 66 AA and HNE-His < median
  Effect on change in HAMD-17 score: 3.000
Phase I, MTR 2756 AA and MTRR 66 AA and HNE-His < median = 3.28 (plasma)
  Effect on change in HAMD-28 score: 4.200
[10]
  Effect on change in HAMD-17 score: −0.400
  Effect on change in HAMD-28 score: −1.000
[11]
  Effect on change in HAMD-17 score: −1.556
  Effect on change in HAMD-28 score: −1.278
[12]
  Effect on change in HAMD-17 score: −12.905
  Effect on change in HAMD-28 score: −18.762
Phase I, MTR 2756 AG or GG and HNE-His >= median
  Effect on change in HAMD-17 score: −7.125
Phase I, MTR 2756 AG or GG and HNE-His >= median = 3.28 (plasma)
  Effect on change in HAMD-28 score: −9.950
[13]
  Effect on change in HAMD-17 score: −6.900
  Effect on change in HAMD-28 score: −9.996
[14]
  Effect on change in HAMD-17 score: −7.200
  Effect on change in HAMD-28 score: −9.800
Phase I, MTR 2756 AG or GG and MTRR 66 AG or GG and SAM/SAH < median
  Effect on change in HAMD-17 score: −9.000
Phase I, MTR 2756 AG or GG and MTRR 66 AG or GG and SAM/SAH < median = 2.71 (plasma)
  Effect on change in HAMD-28 score: −12.741
Phase I, MTR 2756 AG or GG and SAM/SAH < median
  Effect on change in HAMD-17 score: −9.800
Phase I, MTR 2756 AG or GG and SAM/SAH < median = 2.71 (plasma)
  Effect on change in HAMD-28 score: −14.993
Phase I, MTR 2756 AG/GG
  Effect on change in HAMD-17 score: −7.143
  Effect on change in HAMD-28 score: −10.926
Phase I, MTRR 66 AA and HNE-His < median
  Effect on change in HAMD-17 score: −1.167
Phase I, MTRR 66 AA and HNE-His < median = 3.28 (plasma)
  Effect on change in HAMD-28 score: −4.167
[15]
  Effect on change in HAMD-17 score: −0.125
  Effect on change in HAMD-28 score: 0.500
[16]
  Effect on change in HAMD-17 score: −5.958
  Effect on change in HAMD-28 score: −6.975
Phase I, MTRR 66 AG or GG and SAM/SAH < median
  Effect on change in HAMD-17 score: −5.062
Phase I, MTRR 66 AG or GG and SAM/SAH < median = 2.71 (plasma)
  Effect on change in HAMD-28 score: −6.498
[17]
  Effect on change in HAMD-17 score: −3.670
  Effect on change in HAMD-28 score: −4.227
Phase I, SAM/SAH >= med
  Effect on change in HAMD-17 score: −0.946
Phase I, SAM/SAH >= med = 2.71 (plasma)
  Effect on change in HAMD-28 score: −1.148
[18]
  Effect on change in HAMD-17 score: −0.250
  Effect on change in HAMD-28 score: −0.750
Phase I, SAM/SAH*treat, first line under HAMD28
  Effect on change in HAMD-28 score: 0.495
Phase I, baseHAMD-17*treat (interaction of base HAMD-17 with the treatment)
  Effect on change in HAMD-17 score: 0.165
[19]
  Effect on change in HAMD-17 score: 2.000
  Effect on change in HAMD-28 score: 0.000
Phase II, BMI < 25
  Effect on change in HAMD-17 score: −1.400
